Experimental findings from patent US12054486B2, “Pyridine derivatives and their use as sodium channel activators” (Xenon Pharmaceuticals Inc., priority 2021, dated 2024) are described below.

pEC50: −log10 of the molar value. Structures can show the parent of a compound that is named as a salt. A value given as a limit tells only on which side of the number the result lay.

For this experiment, the target named is sodium channel isoforms of interest stably expressed in Human Embryonic Kidney Cells (voltage-gated sodium channel, particularly NaV1.1) (Homo sapiens, UniProt P35498). The experiment in a line: automated planar patch clamp assay of sodium channel gating (area under the sodium current trace). The format is cell-based. The settings on record: HEK cells, voltage step from −120 mV to 0 mV, increasing concentrations. The source says:
A typical assay described in Crestey, F. et al., ACS Chem Neurosci (2015), Vol. 6, pp. 1302-1308, AA43279 (Frederiksen, K. et al., Eur J Neurosci (2017), Vol. 46, pp. 1887-1896) and Lu AE98134 (von Schoubyea, N. L. et al., Neurosci Lett (2018), Vol. 662, pp. 29-35) employs the use of automated planar patch clamp techniques to study the effects of the chemical agent on the gating of sodium channels. The sodium channel isoforms of interest are stably expressed in Human Embryonic Kidney Cells and the currents that flow through those channels in response to a depolarizing voltage clamp step from −120 mV to 0 mV are measured in the presence of increasing concentrations of the chemical agents. The area under the sodium current trace which correlates to the magnitude of sodium flux through the cell membrane is used to quantify the effects on gating of the channels. Other parameters that are measured in the assay include the peak current, time constant of open state inactivation and the voltage dependence of steady state inactivation properties. The concentration responses are used to determine potency of each chemical agents effects on modulating the sodium channel isoform gating. Such techniques are known to those skilled in the art, and may be developed, using current technologies, into low or medium throughput assays for evaluating compounds for their ability to modulate sodium channel behaviour.
As disclosed above, typical assays for testing compounds of the disclosure are known, for example as disclosed in Crestey, F. et al., ACS Chem Neurosci (2015), Vol. 6, pp. 1302-1308, AA43279 (Frederiksen, K. et al., Eur J Neurosci (2017), Vol. 46, pp. 1887-1896) and Lu AE98134 (von Schoubyea, N. L. et al., Neurosci Lett (2018), Vol. 662, pp. 29-35) which employs the use of automated planar patch clamp techniques to study the effects of the chemical agent on the gating of sodium channels. The sodium channel isoforms of interest are stably expressed in Human Embryonic Kidney Cells and the currents that flow through those channels in response to a depolarizing voltage clamp step from −120 mV to 0 mV are measured in the presence of increasing concentrations of the chemical agents. The area under the sodium current trace which correlates to the magnitude of sodium flux through the cell membrane is used to quantify the effects on gating of the channels. Other parameters that are measured in the assay include the peak current, time constant of open state inactivation and the voltage dependence of steady state inactivation properties. The concentration responses are used to determine potency of each chemical agents effects on modulating the sodium channel isoform gating.
(In general: The patch-clamp technique gives a direct electrical read-out from membranes.)
Turning to `c1ccc(-c2cnnc(N3CCCC3)c2-c2nc3ccccc3[nH]2)cc1` [Example 28, 2-(5-phenyl-3-(pyrrolidin-1-yl)pyridazin-4-yl)-1H-benzo[d]imidazole], the pEC50 is 4.30 to 5.00 and the “Empirical Emax” value was “++ (++ indicates a value from 2.0 up to 5.0 μM)”.
The matching figures for `F[C@H]1CCN(c2nccc(-c3ccccc3)c2-c2nc3c([nH]2)CCCC3)C1` [Example 29, (S)-2-(2-(3-fluoropyrrolidin-1-yl)-4-phenylpyridin-3-yl)-4,5,6,7-tetrahydro-1H-benzo[d]imidazole]: over 6.00 and “++ (++ indicates a value from 2.0 up to 5.0 μM)”.
The matching figures for `CC(C)c1ccc(-c2nnc(-c3c(-c4ccccc4)ccnc3N3CC[C@H](F)C3)o2)cc1` [Example 30, (S)-2-(2-(3-fluoropyrrolidin-1-yl)-4-phenylpyridin-3-yl)-5-(4-isopropylphenyl)-1,3,4-oxadiazole]: 5.00 to 6.00 and “+ (+ indicates a value less than 2.0 μM)”.
The matching figures for `CC(C)(C)c1ccc2nc(-c3c(-c4ccccc4)ncnc3N3CCCC3)[nH]c2c1` [Example 31, 6-(tert-butyl)-2-(4-phenyl-6-(pyrrolidin-1-yl)pyrimidin-5-yl)-1H-benzo[d]imidazole]: 5.00 to 6.00 and “+++ (+++ indicates a value from 5.0 up to 7.5 μM)”.
Turning to `F[C@H]1CCN(c2nccc(-c3ccccc3)c2-c2nnn[nH]2)C1` [Example 32, (S)-2-(3-fluoropyrrolidin-1-yl)-4-phenyl-3-(1H-tetrazol-5-yl)pyridine], the pEC50 was over 6.00 and the “Empirical Emax” value was “+ (+ indicates a value less than 2.0 μM)”.
For the compound `Cc1nc(-c2c(-c3ccccc3)ccnc2N2CC[C@H](F)C2)[nH]c1C(F)(F)F` [Example 33, (S)-2-(3-fluoropyrrolidin-1-yl)-3-(4-methyl-5-(trifluoromethyl)-1H-imidazol-2-yl)-4-phenylpyridine], the negative-log EC50 (pEC50) is 4.30 to 5.00 and the “Empirical Emax” value was “++ (++ indicates a value from 2.0 up to 5.0 μM)”.
For `CC(C)(C)OC(=O)N1CCc2nc(-c3c(-c4ccccc4)ccnc3N3CC[C@H](F)C3)[nH]c2C1` [Example 34, Tert-Butyl (S)-2-(2-(3-fluoropyrrolidin-1-yl)-4-phenylpyridin-3-yl)-3,4,6,7-tetrahydro-5H-imidazo[4,5-c]pyridine-5-carboxylate], the negative logarithm of the EC50 (pEC50) was 5.00 to 6.00 and the “Empirical Emax” value is “+++ (+++ indicates a value from 5.0 up to 7.5 μM)”.
Consider `F[C@H]1CCN(c2nccc(-c3ccccc3)c2-c2nc3c([nH]2)CNCC3)C1` [Example 35, (S)-2-(2-(3-fluoropyrrolidin-1-yl)-4-phenylpyridin-3-yl)-4,5,6,7-tetrahydro-3H-imidazo[4,5-c]pyridine 2,2,2-trifluoroacetic Acid Salt (Free Acid)], for which the negative-log EC50 (pEC50) is at most 4.30 and the “Empirical Emax” value is given as “+ (+ indicates a value less than 2.0 μM)”.
As to `CN1CCc2nc(-c3c(-c4ccccc4)ccnc3N3CC[C@H](F)C3)[nH]c2C1` [Example 36, (S)-2-(2-(3-fluoropyrrolidin-1-yl)-4-phenylpyridin-3-yl)-5-methyl-4,5,6,7-tetrahydro-3H-imidazo[4,5-c]pyridine], the negative logarithm of the EC50 (pEC50) was 4.30 to 5.00 and the “Empirical Emax” value is reported as “+ (+ indicates a value less than 2.0 μM)”.
For `CC(=O)N1CCc2nc(-c3c(-c4ccccc4)ccnc3N3CC[C@H](F)C3)[nH]c2C1` [Example 37, (S)-1-(2-(2-(3-fluoropyrrolidin-1-yl)-4-phenylpyridin-3-yl)-3,4,6,7-tetrahydro-5H-imidazo[4,5-c]pyridin-5-yl)ethan-1-one], the negative-log EC50 (pEC50) was 4.30 to 5.00.
As for `CC(C)N1CCc2nc(-c3c(-c4ccccc4)ccnc3N3CC[C@H](F)C3)[nH]c2C1` [Example 38, (S)-2-(2-(3-fluoropyrrolidin-1-yl)-4-phenylpyridin-3-yl)-5-isopropyl-4,5,6,7-tetrahydro-3H-imidazo[4,5-c]pyridine], the negative-log EC50 (pEC50) was at most 4.30 and the “Empirical Emax” value was “+ (+ indicates a value less than 2.0 μM)”.
As to `F[C@H]1CCN(c2nccc(-c3ccccc3)c2-c2nc3c([nH]2)CN(C2COC2)CC3)C1` [Example 39, (S)-2-(2-(3-fluoropyrrolidin-1-yl)-4-phenylpyridin-3-yl)-5-(oxetan-3-yl)-4,5,6,7-tetrahydro-3H-imidazo[4,5-c]pyridine], the negative logarithm of the EC50 (pEC50) was 4.30 to 5.00 and the “Empirical Emax” value is listed as “++ (++ indicates a value from 2.0 up to 5.0 μM)”.
Take `CCOC(=O)N1CCc2nc(-c3c(-c4ccccc4)ccnc3N3CC[C@H](F)C3)n(C(=O)OCC)c2C1` [Example 40, diethyl (S)-2-(2-(3-fluoropyrrolidin-1-yl)-4-phenylpyridin-3-yl)-6,7-dihydro-3H-imidazo[4,5-c]pyridine-3,5(4H)-dicarboxylate]: the pEC50 is 5.00 to 6.00 and the “Empirical Emax” value is “+++ (+++ indicates a value from 5.0 up to 7.5 μM)”.
Turning to `CC(C)C(=O)N1CCc2nc(-c3c(-c4ccccc4)ccnc3N3CC[C@H](F)C3)[nH]c2C1` [Example 41, (S)-1-(2-(2-(3-fluoropyrrolidin-1-yl)-4-phenylpyridin-3-yl)-3,4,6,7-tetrahydro-5H-imidazo[4,5-c]pyridin-5-yl)-2-methylpropan-1-one], the negative logarithm of the EC50 (pEC50) was at most 4.30 and the “Empirical Emax” value is recorded as “+ (+ indicates a value less than 2.0 μM)”.
In the case of `F[C@H]1CCN(c2nccc(-c3ccccc3)c2-c2nc3c([nH]2)CN(Cc2ccccc2)CC3)C1` [Example 42, (S)-5-benzyl-2-(2-(3-fluoropyrrolidin-1-yl)-4-phenylpyridin-3-yl)-4,5,6,7-tetrahydro-3H-imidazo[4,5-c]pyridine], the pEC50 was over 6.00 and the “Empirical Emax” value is on record as “++ (++ indicates a value from 2.0 up to 5.0 μM)”.
As to `FC1(F)CCN(c2nccc(-c3ccccc3)c2-c2nc3c([nH]2)COCC3)C1` [Example 43, 2-(2-(3,3-difluoropyrrolidin-1-yl)-4-phenylpyridin-3-yl)-3,4,6,7-tetrahydropyrano[3,4-d]imidazole], the pEC50 is over 6.00 and the “Empirical Emax” value was “+++ (+++ indicates a value from 5.0 up to 7.5 μM)”.
The matching figures for `c1ccc(-c2ccnc(N3CCCC3)c2-c2nc3c([nH]2)COCC3)cc1` [Example 44, 2-(4-phenyl-2-(pyrrolidin-1-yl)pyridin-3-yl)-3,4,6,7-tetrahydropyrano[3,4-d]imidazole]: 5.00 to 6.00 and “+++ (+++ indicates a value from 5.0 up to 7.5 μM)”.
The matching figures for `FC1(F)C2CN(c3nccc(-c4ccccc4)c3-c3nc4c([nH]3)COCC4)CC21` (stereo not shown) [Example 45, 2-(2-(6,6-difluoro-3-azabicyclo[3.1.0]hexan-3-yl)-4-phenylpyridin-3-yl)-3,4,6,7-tetrahydropyrano[3,4-d]imidazole]: over 6.00 and “+++ (+++ indicates a value from 5.0 up to 7.5 μM)”.
For `N#CC1CCN(c2nccc(-c3ccccc3)c2-c2nc3c([nH]2)COCC3)C1` (stereo not shown) [Example 46], the negative-log EC50 (pEC50) is 5.00 to 6.00 and the “Empirical Emax” value is listed as “+++ (+++ indicates a value from 5.0 up to 7.5 μM)”.
Take `FC(F)(F)C1CCN(c2nccc(-c3ccccc3)c2-c2nc3c([nH]2)COCC3)C1` (stereo not shown) [Example 47, 2-(4-phenyl-2-(3-(trifluoromethyl)pyrrolidin-1-yl)pyridin-3-yl)-3,4,6,7-tetrahydropyrano[3,4-d]imidazole]: the negative-log EC50 (pEC50) is 5.00 to 6.00 and the “Empirical Emax” value is “+++ (+++ indicates a value from 5.0 up to 7.5 μM)”.
The matching figures for `F[C@@H]1CN(c2nccc(-c3ccccc3)c2-c2nc3c([nH]2)COCC3)C[C@@H]1F` [Example 48, 2-(2-((3S,4R)-3,4-difluoropyrrolidin-1-yl)-4-phenylpyridin-3-yl)-3,4,6,7-tetrahydropyrano[3,4-d]imidazole]: 5.00 to 6.00 and “+++ (+++ indicates a value from 5.0 up to 7.5 μM)”.
The matching figures for `FC1(F)CCCN(c2nccc(-c3ccccc3)c2-c2nc3c([nH]2)COCC3)C1` [Example 49, 2-(2-(3,3-difluoropiperidin-1-yl)-4-phenylpyridin-3-yl)-3,4,6,7-tetrahydropyrano[3,4-d]imidazole]: 4.30 to 5.00 and “++ (++ indicates a value from 2.0 up to 5.0 μM)”.

A word on the pEC50: it is the EC50 on a negative log10 scale, so that one unit is a factor of ten. A lower pEC50 goes with a large EC50.
